How the values were obtained:
[1] = Inhibition of carnitine palmitoyltransferase in rat liver mitochondria assessed as conversion of [14C]palmitic acid to [14C]palmitoylcarnitine by radiometric assay
[2] = Inhibition of carnitine palmitoyltransferase in rat heart mitochondria assessed as conversion of [14C]palmitic acid to [14C]palmitoylcarnitine by radiometric assay
Mus musculus = experiment: Reduction in glucose level in db/db mouse at 30 mg/kgl/day, po for 12 days; format: functional; design: scale not given: the % may be the effect or the level left; conditions: dose 30 mg/kg
[3] = Critical micelle concentration of compound; format: physicochemical
[4] = target: T1, Carnitine O-palmitoyltransferase 1, liver isoform (Homo sapiens, UniProt P50416); experiment: Inhibition of CPT1A
T1 sequence (P50416 whole entry): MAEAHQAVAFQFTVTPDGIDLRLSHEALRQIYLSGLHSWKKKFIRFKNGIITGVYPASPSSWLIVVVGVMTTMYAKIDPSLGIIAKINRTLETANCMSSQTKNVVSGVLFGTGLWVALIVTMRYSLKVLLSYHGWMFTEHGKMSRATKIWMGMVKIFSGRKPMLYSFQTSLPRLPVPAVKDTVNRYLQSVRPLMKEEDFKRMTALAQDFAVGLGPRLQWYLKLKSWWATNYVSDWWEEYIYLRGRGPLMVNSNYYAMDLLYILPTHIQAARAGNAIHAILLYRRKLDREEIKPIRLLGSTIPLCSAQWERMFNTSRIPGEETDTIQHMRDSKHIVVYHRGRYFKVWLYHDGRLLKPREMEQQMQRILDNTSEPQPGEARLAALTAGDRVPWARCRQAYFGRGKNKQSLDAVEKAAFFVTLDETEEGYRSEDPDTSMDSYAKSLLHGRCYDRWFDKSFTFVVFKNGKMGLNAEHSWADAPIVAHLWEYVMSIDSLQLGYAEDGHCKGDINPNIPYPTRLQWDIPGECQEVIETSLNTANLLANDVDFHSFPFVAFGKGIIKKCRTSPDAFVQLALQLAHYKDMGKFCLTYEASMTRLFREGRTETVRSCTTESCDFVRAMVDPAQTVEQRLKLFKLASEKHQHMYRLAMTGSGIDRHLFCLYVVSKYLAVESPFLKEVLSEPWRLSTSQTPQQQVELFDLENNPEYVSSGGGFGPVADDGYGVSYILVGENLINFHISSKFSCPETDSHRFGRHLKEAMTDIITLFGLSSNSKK

[5] = target: T2, Carnitine O-palmitoyltransferase 1, muscle isoform (Homo sapiens, UniProt Q92523); experiment: Inhibition of CPT1B
T2 sequence (Q92523 whole entry): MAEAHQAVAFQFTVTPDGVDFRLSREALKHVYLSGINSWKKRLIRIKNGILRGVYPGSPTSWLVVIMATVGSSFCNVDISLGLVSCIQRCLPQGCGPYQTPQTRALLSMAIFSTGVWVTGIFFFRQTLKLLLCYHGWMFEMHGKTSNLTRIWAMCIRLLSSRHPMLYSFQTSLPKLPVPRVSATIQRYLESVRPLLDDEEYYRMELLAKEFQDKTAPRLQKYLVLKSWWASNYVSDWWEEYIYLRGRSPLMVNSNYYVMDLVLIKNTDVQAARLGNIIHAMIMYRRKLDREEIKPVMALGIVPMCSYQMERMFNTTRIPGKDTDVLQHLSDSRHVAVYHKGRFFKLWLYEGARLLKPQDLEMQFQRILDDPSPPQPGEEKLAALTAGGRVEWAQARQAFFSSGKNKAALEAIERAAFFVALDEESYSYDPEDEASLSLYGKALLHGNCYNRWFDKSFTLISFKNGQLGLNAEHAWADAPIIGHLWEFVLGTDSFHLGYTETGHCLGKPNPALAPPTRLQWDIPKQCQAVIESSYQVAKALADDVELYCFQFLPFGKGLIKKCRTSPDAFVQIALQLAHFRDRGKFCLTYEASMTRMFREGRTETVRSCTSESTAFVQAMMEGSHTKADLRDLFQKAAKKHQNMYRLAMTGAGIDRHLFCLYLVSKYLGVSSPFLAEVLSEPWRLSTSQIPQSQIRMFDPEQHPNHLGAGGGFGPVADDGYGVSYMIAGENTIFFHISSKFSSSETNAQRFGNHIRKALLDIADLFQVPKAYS

[6] = Inhibition of human FAO
[7] = Inhibition of rat FAO
[8] = target: T1, Carnitine O-palmitoyltransferase 1, liver isoform; experiment: Inhibition of human CPT1A
[9] = target: T3, Carnitine O-palmitoyltransferase 2, mitochondrial (Rattus norvegicus, UniProt P18886); experiment: Inhibition of rat CPT2
T3 sequence (P18886 whole entry): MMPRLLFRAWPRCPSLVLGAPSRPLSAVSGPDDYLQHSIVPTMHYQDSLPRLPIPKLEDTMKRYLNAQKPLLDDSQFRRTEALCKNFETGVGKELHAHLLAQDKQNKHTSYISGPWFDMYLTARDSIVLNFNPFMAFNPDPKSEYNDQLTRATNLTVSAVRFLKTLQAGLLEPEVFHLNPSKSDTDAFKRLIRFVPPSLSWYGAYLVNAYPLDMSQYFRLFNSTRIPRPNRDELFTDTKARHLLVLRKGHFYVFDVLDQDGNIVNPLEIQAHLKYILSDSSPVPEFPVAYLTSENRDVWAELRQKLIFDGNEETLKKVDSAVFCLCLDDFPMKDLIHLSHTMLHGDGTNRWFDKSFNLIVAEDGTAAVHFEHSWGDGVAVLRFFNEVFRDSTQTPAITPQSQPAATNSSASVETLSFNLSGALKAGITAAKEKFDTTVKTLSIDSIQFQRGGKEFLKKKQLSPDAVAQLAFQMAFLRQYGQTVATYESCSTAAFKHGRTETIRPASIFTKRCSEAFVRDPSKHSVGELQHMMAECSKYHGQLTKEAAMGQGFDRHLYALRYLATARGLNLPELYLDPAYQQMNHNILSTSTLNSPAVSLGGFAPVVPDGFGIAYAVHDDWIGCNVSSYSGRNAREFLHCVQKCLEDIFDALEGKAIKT

[10] = target: T2, Carnitine O-palmitoyltransferase 1, muscle isoform; experiment: Inhibition of human CPT1B
[11] = target: T4, Carnitine O-palmitoyltransferase 2, mitochondrial (Homo sapiens, UniProt P23786); experiment: Inhibition of human CPT2
T4 sequence (P23786 whole entry): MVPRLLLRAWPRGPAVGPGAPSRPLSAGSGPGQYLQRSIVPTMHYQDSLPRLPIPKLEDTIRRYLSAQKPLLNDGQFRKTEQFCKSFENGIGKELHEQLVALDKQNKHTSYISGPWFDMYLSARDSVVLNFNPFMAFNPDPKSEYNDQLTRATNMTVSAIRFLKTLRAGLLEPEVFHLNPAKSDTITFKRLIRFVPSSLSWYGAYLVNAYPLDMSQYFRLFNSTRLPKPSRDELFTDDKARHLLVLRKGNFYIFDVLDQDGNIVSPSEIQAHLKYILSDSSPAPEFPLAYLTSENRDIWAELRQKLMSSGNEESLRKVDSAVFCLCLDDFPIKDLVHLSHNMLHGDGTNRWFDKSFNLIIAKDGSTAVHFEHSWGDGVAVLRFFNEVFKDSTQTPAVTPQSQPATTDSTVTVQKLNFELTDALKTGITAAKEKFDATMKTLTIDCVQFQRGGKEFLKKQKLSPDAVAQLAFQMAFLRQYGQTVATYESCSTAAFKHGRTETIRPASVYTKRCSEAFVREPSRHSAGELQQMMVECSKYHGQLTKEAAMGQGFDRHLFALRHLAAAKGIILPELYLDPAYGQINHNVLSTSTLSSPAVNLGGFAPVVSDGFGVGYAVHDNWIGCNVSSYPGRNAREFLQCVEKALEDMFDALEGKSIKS

Rattus norvegicus [12] = experiment: Reduction in blood glucose in Sprague-Dawley rat at 600 umol/kg, po; format: functional; design: scale not given: the % may be the effect or the level left
Rattus norvegicus [13] = experiment: Reduction in blood glucose in po dosed Sprague-Dawley rat; format: functional
[14] = Toxicity in po dosed Sprague-Dawley rat assessed as hypoglycemic coma; format: organism-based; conditions: in vivo
[15] = target: T3, Carnitine O-palmitoyltransferase 2, mitochondrial; experiment: Inhibition of rat CPT2 using [3H]carnitine by radiometric assay
[16] = target: T5, Carnitine O-palmitoyltransferase 1, liver isoform (Rattus norvegicus, UniProt P32198); experiment: Inhibition of rat CPT1A using [3H]carnitine by radiometric assay
T5 sequence (P32198 whole entry): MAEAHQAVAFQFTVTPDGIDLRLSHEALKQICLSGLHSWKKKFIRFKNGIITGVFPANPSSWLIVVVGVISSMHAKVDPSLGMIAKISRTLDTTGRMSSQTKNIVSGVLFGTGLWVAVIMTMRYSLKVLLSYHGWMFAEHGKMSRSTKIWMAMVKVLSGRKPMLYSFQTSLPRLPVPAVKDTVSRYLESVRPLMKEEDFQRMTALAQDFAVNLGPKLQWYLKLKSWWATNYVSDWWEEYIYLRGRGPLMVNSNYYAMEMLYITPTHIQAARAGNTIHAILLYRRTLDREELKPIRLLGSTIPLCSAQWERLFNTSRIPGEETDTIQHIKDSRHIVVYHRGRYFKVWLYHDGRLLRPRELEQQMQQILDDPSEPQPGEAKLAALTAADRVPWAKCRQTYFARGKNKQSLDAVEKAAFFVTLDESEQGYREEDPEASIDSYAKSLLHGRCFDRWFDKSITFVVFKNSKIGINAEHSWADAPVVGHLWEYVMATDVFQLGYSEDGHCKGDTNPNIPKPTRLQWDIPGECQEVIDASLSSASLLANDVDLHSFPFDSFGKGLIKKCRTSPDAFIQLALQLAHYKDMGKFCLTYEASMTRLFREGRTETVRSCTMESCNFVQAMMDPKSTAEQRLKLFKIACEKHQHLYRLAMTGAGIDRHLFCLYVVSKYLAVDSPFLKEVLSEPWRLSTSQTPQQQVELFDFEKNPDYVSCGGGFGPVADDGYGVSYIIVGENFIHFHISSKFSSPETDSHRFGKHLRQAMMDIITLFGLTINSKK

[17] = target: T6, Mitochondrial carnitine/acylcarnitine carrier protein (Homo sapiens, UniProt O43772); experiment: Inhibition of CACT
T6 sequence (O43772 whole entry): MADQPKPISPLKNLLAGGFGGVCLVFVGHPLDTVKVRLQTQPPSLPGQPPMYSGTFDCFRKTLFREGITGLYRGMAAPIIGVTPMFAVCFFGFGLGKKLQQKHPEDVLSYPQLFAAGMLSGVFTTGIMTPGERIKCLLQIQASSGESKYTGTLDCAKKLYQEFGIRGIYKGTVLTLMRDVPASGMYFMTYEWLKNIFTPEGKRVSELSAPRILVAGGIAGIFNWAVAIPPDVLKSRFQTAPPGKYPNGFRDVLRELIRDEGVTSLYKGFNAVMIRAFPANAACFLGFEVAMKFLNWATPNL

CCCCCCOc1cccc(OCCCCNC(=O)N[C@H](CC(=O)[O-])C[P+](C)(C)C)c1
IC50 [1]: 0.12 µM | IC50 [2]: 57.3 µM | Activity (Mus musculus): 30% | CMC [3]: 0.55 mM

O=C(O)C1(C(F)(F)CCCCCOc2ccc(Cl)cc2)CO1 (stereo not drawn)
IC50 [4]: 0.25 µM | IC50 [5]: > 50 µM

CCCCCCCC[C@H]1OC(=O)C(C)=C1C(=O)O
IC50 [6]: 77 µM | IC50 [7]: > 100 µM

CCCCCCCC[C@H]1OC(=O)C(CSCCNC(=O)CCNC(=O)[C@H](O)C(C)(C)COP(=O)(O)OP(=O)(O)OC[C@H]2O[C@@H](n3cnc4c(N)ncnc43)[C@H](O)[C@@H]2OP(=O)(O)O)[C@@H]1C(=O)O (stereo partly drawn)
IC50 [4]: 0.24 µM | IC50 [5]: 0.36 µM

O=C(NCc1cccs1)c1nn(Cc2cccc(C(F)(F)F)c2)c2ccccc12
IC50 [8]: 0.026 µM | IC50 [9]: > 100 µM | IC50 [10]: > 100 µM

COc1ccc(Cl)cc1S(=O)(=O)N1CC(C(=O)O)Oc2ccc(C(=O)Nc3cccc(F)c3)cc21 (stereo not drawn)
IC50 [9]: > 100 µM | IC50 [11]: > 100 µM | IC50 [10]: 3.4 µM

CCOC(=O)C1(CCCCCc2ccc(Cl)cc2)CO1 (racemic)
Activity (Rattus norvegicus [12]): 80% | ED50 (Rattus norvegicus [13]): 6 mg/kg | LD50 [14]: 275 mg/kg

COc1ccc(Cl)cc1S(=O)(=O)N1CCc2ccc(C(=O)Nc3ccc(C(=O)O)cc3)cc21
IC50 [8]: 0.021 µM | IC50 [9]: 3.2 µM | IC50 [11]: 0.74 µM | IC50 [10]: > 100 µM

N[C@H](C(=O)O)c1ccc(O)cc1 [OXFENICINE]
IC50 [8]: > 100 µM | IC50 [6]: > 100 µM | IC50 [11]: > 100 µM | IC50 [7]: > 100 µM | IC50 [10]: > 100 µM

CCCCCCCCCCCCCCCC1(O)C[N+](C)(C)CC(CC(=O)[O-])O1 (stereo in doubt; (-)-27)
IC50 [15]: 6.7 µM | IC50 [16]: 15.5 µM

O=C(O)[C@@]1(CCCCCCOc2ccccc2)CO1 [DECHLOROETOMOXIR]
IC50 [6]: 1.8 µM | IC50 [7]: 4.4 µM

CCCCCCCCCC(=O)O[C@@H](CC(=O)[O-])C[N+](C)(C)C
IC50 [17]: 5 µM

— ChEMBL document CHEMBL2216752, “Carnitine palmitoyltransferase (CPT) modulators: a medicinal chemistry perspective on 35 years of research” (J Med Chem, 2011)
